Measured values from patent US9497964B2, “Synergistic activity of peracetic acid and at least one SAR inducer for the control of pathogens in and onto growing plants” (AGRI-NEO INC., priority 2010, dated 2016).

System: Fusarium patch disease
Test: Fusarium patch on turfgrass in British Columbia Canada
Format: in vivo
Conditions: for % disease control vs untreated / mean # disease spots/plot: 0.6 kg/ha
Description: Creeping bentgrass was naturally inoculated with Fusarium patch disease. Four plots were assessed, and each plot was four square meters of mature turf. Four replicates were used per treatment. […] Azoxystrobin is a broad-spectrum fungicide with a single-site mode of action: it binds very tightly to the Qo site of Complex III in the mitochondrial electron transport chain of fungal pathogens. Thus the disease pest is prevented from generating ATP, so it dies for lack of metabolic energy. Azoxystrobin is itself extracted from certain Eastern European mushrooms reputed for their resistance to disease induced by other fungi. Azoxystrobin, marketed under the brand name of Heritage, is one of the commercial standards used in the management of Fusarium Patch disease on turf grass. It was against this reference that the efficacy of […] in controlling this pathogen was compared and contrasted.
Spray volume was one thousand liters per hectare. Three product applications were made. The interval between applications was 14 days.
Observations (disease symptoms, leaf damage due to product, and grass vigour) were made at the following intervals: • Immediately prior to each application. • Nine days after the last (third) application. • Sixty days after the last (third) application. • Ninety days after the last (third) application.

CO/C=C(/C(=O)OC)c1ccccc1Oc1cc(Oc2ccccc2C#N)ncn1 [Azoxystrobin]
% disease control vs untreated (Spring): 17%
mean # disease spots/plot (Spring): 10
% disease control vs untreated (Winter): 31%
mean # disease spots/plot (Winter): 9
reduction of disease incidence relative to the water-sprayed inoculated control (Azoxystrobin): 15-30%
